Paper PMC3549271 (ACS medicinal chemistry letters, 2012)

Key:
[1] = biological target: T1, human A1 adenosine receptor (hA1AR) (Homo sapiens, UniProt P30542); experiment: radioligand binding assay at human A1AR; settings: read-out: % inhibition at 10μM A1
T1 sequence (P30542 1-326): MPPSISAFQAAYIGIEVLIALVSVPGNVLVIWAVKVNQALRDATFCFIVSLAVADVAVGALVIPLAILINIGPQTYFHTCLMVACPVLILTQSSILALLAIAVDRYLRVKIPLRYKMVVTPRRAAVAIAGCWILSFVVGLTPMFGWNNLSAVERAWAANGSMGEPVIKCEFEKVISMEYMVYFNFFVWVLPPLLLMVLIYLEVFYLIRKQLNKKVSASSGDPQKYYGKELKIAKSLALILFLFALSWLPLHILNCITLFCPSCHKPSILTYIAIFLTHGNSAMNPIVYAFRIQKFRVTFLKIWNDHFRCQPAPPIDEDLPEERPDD

[2] = biological target: T2, A2BAR (Homo sapiens, UniProt P29275); format: cell-based
T2 sequence (P29275 1-332): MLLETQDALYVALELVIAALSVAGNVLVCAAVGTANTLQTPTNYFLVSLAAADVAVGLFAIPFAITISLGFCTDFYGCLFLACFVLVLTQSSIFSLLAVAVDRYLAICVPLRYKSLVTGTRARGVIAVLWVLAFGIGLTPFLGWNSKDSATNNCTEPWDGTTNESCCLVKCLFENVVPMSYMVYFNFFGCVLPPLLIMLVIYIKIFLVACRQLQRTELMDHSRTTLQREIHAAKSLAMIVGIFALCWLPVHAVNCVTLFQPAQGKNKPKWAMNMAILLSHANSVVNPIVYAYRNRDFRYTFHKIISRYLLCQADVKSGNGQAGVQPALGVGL

[3] = biological target: human A2A adenosine receptor (hA2AAR) (Homo sapiens, UniProt P29274); experiment: radioligand binding assay at human A2AAR; settings: free energy of binding divided by the number of heavy atoms
Chain of human A2A adenosine receptor (hA2AAR) (P29274 whole entry): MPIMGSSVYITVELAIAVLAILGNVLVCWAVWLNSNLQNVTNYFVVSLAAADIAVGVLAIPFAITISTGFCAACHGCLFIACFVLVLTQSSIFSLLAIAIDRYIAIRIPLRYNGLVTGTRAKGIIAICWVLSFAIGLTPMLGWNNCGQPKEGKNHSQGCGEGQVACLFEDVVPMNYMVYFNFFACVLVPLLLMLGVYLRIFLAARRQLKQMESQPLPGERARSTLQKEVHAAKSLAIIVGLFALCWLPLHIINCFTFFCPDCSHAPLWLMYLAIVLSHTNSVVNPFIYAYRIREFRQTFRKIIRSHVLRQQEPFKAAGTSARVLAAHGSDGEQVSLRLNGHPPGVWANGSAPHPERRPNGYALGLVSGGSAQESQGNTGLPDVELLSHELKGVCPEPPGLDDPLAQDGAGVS

Cc1cccc(O[C@H](C)C(=O)Nc2nc(-c3ccccc3)n[nH]2)c1 [Compound 1]
inhibition at 10 µM [1]: 19%
% inhibition at 10μM A2B (inhibition of cAMP accumulation) ([2]; 10 μM compound, in the presence of 300 nM NECA, three independent experiments): no significant activity
ligand efficiency (LE) [3]: 0.34

Cc1ccc(O[C@H](C)C(=O)Nc2nc(-c3ccco3)n[nH]2)cc1 [Compound 24]
inhibition at 10 µM ([2]; read-out: % inhibition at 10μM A2B (inhibition of cAMP accumulation)): -15%

CCCC(=O)Nc1nc(-c2ccccc2)n[nH]1 [Compound 27]
ligand efficiency (LE) [3]: 0.48

O=C(Nc1nc(-c2ccccc2)n[nH]1)c1ccccc1 [Compound 29]
ligand efficiency (LE) [3]: 0.44

COc1ccccc1C(=O)Nc1nc(-c2ccccc2)n[nH]1 [Compound 32]
ligand efficiency (LE) [3]: 0.42
